Assay [1] deals with PMA-differentiated THP-1 cells. Kind of assay: IL-1β production in PMA-differentiated THP-1 cells stimulated with gramicidin (hTHP-1 assay containing 2% fetal bovine serum; Procedures 1 and 2). The class given is cell-based, human. As to conditions: Table B5. In a few lines:
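Compound titrations in 0.37% final DMSO were added to THP-1 cells that had been plated after 16-18 h PMA treatment, 50,000 per well in 2% FBS. One hour later the cells received gramicidin (5 μM, 2 h) and were centrifuged. HTRF detected IL-1β in the collected supernatants.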

Assay [2] relates to PMA-differentiated THP-1 cells. Kind of assay: hTHP-1 assay containing 10% fetal bovine serum (IL-1β production, Tables B5 and B6). The class given is cell-based, human. A digest of the protocol:
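IL-1β release from PMA-differentiated THP-1 macrophage-like cells was triggered by 5 μM gramicidin for 2 h after 1 h compound exposure, then measured by HTRF.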

Where [3] appears, read: Homo sapiens, THP-1, read-out: hTHP-1 IC50 in 10% FBS, hTHP-1 assay containing 10% fetal bovine serum, Table B5.
Where [4] appears, read: Homo sapiens, THP-1, read-out: hTHP-1 IC50 in 10% FBS, hTHP-1 assay containing 10% fetal bovine serum, Table B6.
Where [5] appears, read: read-out: hTHP-1 IC50 in 10% FBS, hTHP-1 assay containing 10% fetal bovine serum, Table B6.

For orientation: IC50 means the midpoint of a concentration-inhibition curve. For `CC(C)n1cc(F)c(S(N)(=O)=NC(=O)Nc2c3c(nc4c2CCC42CC2)CCC3)n1` (centres unmarked) [Compound 1102, 4-Fluoro-1-isopropyl-N′-((1′,5′,6′,7′-tetrahydro-2′H-spiro [cyclopropane-1,3′-dicyclopenta[b,e]pyridin]-8′-yl)carbamoyl)-1H-pyrazole-3-sulfonimidamide], the IC50 in assay [1] (Homo sapiens, THP-1, read-out: hTHP-1 IC50 in 2% FBS, hTHP-1 assay containing 2% fetal bovine serum) was in the range of 8 to 40 nM; in assay [2] (setting [3]), 8 to 40 nM.

`CC(C)n1cc(F)c(S(N)(=O)=NC(=O)Nc2c3c(nc(C4CC4)c2C2CC2)CCC3)n1` (single isomer, unassigned) [Compound 1103a, (R) or (S)-N′-((2,3-dicyclopropyl-6,7-dihydro-5H-cyclopenta[b]pyridin-4-yl)carbamoyl)-4-fluoro-1-isopropyl-1H-pyrazole-3-sulfonimidamide]: the IC50 was 40 to 200 nM in assay [1] (read-out: hTHP-1 IC50 in 2% FBS, hTHP-1 assay containing 2% fetal bovine serum, listed as 815) and 8 to 40 nM in assay [2] (read-out: hTHP-1 IC50 in 10% FBS, hTHP-1 assay containing 10% fetal bovine serum, Table B5, listed as 815).

On to `CC(C)n1cc(F)c(S(N)(=O)=NC(=O)Nc2c3c(nc4c2CCC42CC2)CCC3)n1` (single isomer, unassigned) [Compound 1102a, (R) or (S)-4-Fluoro-1-isopropyl-N′-((1′,5′,6′,7′-tetrahydro-2′H-spiro [cyclopropane-1,3′-dicyclopenta[b,e]pyridin]-8′-yl)carbamoyl)-1H-pyrazole-3-sulfonimidamide], for which the IC50 in assay [1] (read-out: hTHP-1 IC50 in 2% FBS, hTHP-1 assay containing 2% fetal bovine serum, listed as 813) lay in the range of 8 to 40 nM; in assay [2] (read-out: hTHP-1 IC50 in 10% FBS, hTHP-1 assay containing 10% fetal bovine serum, Table B5, listed as 813), 8 to 40 nM.

Turning to `CCn1cc(F)c(S(N)(=O)=NC(=O)Nc2c(C)c(C(F)(F)F)nc3c2C(C)CC3)n1` (single isomer, unassigned) [Compound 1100c, (S, R) or (S, S)-N′-((3,5-dimethyl-2-(trifluoromethyl)-6,7-dihydro-5H-cyclopenta[b]pyridin-4-yl)carbamoyl)-1-ethyl-4-fluoro-1H-pyrazole-3-sulfonimidamide], the IC50 in assay [1] (read-out: hTHP-1 IC50 in 2% FBS, hTHP-1 assay containing 2% fetal bovine serum, listed as 819) was 5000 to 30000 nM; in assay [2] (read-out: hTHP-1 IC50 in 10% FBS, hTHP-1 assay containing 10% fetal bovine serum, Table B5, listed as 819), 5000 to 30000 nM.

As for `CC(C)(O)c1csc(S(N)(=O)=NC(=O)Nc2c3c(nc4c2CCC4)CCC3)c1F` (single isomer, unassigned) [Compound 1107b, (S) or (R)-3-fluoro-N′-((1,2,3,5,6,7-hexahydrodicyclopenta[b,e]pyridin-8-yl)carbamoyl)-4-(2-hydroxypropan-2-yl)thiophene-2-sulfonimidamide], in assay [2] (read-out: hTHP-1 IC50 in 10% FBS, hTHP-1 assay containing 10% fetal bovine serum, Table B5, listed as 839), the IC50 is 1000 to 5000 nM.

In the case of `Cc1c(C(F)(F)F)nc2c(c1NC(=O)N=S(N)(=O)c1nn(C(C)(F)F)cc1F)CCC2` (single isomer, unassigned) [Compound 1004a, (R) or (S)-1-(1,1-Difluoroethyl)-4-fluoro-N′-((3-methyl-2-(trifluoromethyl)-6,7-dihydro-5H-cyclopenta[b]pyridin-4-yl)carbamoyl)-1H-pyrazole-3-sulfonimidamide], the half-inhibitory concentration (IC50) in assay [2] (read-out: hTHP-1 IC50 in 10% FBS, hTHP-1 assay containing 10% fetal bovine serum, Table B5, listed as 832) was in the range of 40 to 200 nM.

`NS(=O)(=NC(=O)Nc1c2c(nc3c1CCC31CC1)CCC2)c1ccn(C2CC2)n1` (centres unmarked) [Example 861, 1-Cyclopropyl-N′-((1′,5′,6′,7′-tetrahydro-2′H-spiro[cyclopropane-1,3′-dicyclopenta[b,e]pyridin]-8′-yl)carbamoyl)-1H-pyrazole-3-sulfonimidamide]: in assay [2] (setting [4]), the IC50 lay within 40 to 200 nM.

With `C[C@@H]1CCc2c1nc1c(c2NC(=O)N=S(N)(=O)c2nn(C3CC3)cc2F)CCC1` (stereo partly drawn) [Example 855, 1-Cyclopropyl-4-fluoro-N′-(((R)-3-methyl-1,2,3,5,6,7-hexahydrodicyclopenta[b,e]pyridin-8-yl)carbamoyl)-1H-pyrazole-3-sulfonimidamide], the half-maximal inhibitory concentration (IC50) in assay [2] (setting [4]) lay within 8 to 40 nM.

As for `Cc1c(C(F)(F)F)nc2c(c1NC(=O)N=S(N)(=O)c1cnc(C(F)F)s1)CCC2` (single isomer, unassigned) [Compound 1007b, (S) or (R)-2-(Difluoromethyl)-N′-((3-methyl-2-(trifluoromethyl)-6,7-dihydro-5H-cyclopenta[b]pyridin-4-yl)carbamoyl)thiazole-5-sulfonimidamide], the half-inhibitory concentration (IC50) in assay [2] (read-out: hTHP-1 IC50 in 10% FBS, hTHP-1 assay containing 10% fetal bovine serum, Table B5, listed as 828) is 5000 to 30000 nM.

Regarding `CC(F)(F)n1cc(F)c(S(N)(=O)=NC(=O)Nc2c3c(nc4c2CCC4)CCC3)n1` (single isomer, unassigned) [Compound 1115b, (S) or (R)-1-(1,1-difluoroethyl)-4-fluoro-N′-((1,2,3,5,6,7-hexa-hydrodicyclopenta[b,e]pyridin-8-yl)carbamoyl)-1H-pyrazole-3-sulfonimidamide], the IC50 in assay [2] (read-out: hTHP-1 IC50 in 10% FBS, hTHP-1 assay containing 10% fetal bovine serum, Table B5, listed as 847) lay within 5000 to 30000 nM.

As for `CC(C)(O)c1csc(S(N)(=O)=NC(=O)Nc2c3c(nc4c2CCC4)CCC3)c1F` (single isomer, unassigned) [Compound 1107a, (R) or (S)-3-fluoro-N′-((1,2,3,5,6,7-hexahydrodicyclopenta[b,e]pyridin-8-yl)carbamoyl)-4-(2-hydroxypropan-2-yl)thiophene-2-sulfonimidamide], the IC50 in assay [2] (read-out: hTHP-1 IC50 in 10% FBS, hTHP-1 assay containing 10% fetal bovine serum, Table B5, listed as 838) is 40 to 200 nM.

As for `CC(C)(O)c1csc(S(N)(=O)=NC(=O)Nc2c3c(nc(C(F)(F)F)c2C2CC2)CCC3)c1F` (single isomer, unassigned) [Compound 1105a, (R) or (S)-N′-((3-cyclopropyl-2-(trifluoromethyl)-6,7-dihydro-5H-cyclopenta[b]pyridin-4-yl)carbamoyl)-3-fluoro-4-(2-hydroxypropan-2-yl)thiophene-2-sulfonimidamide], the half-maximal inhibitory concentration (IC50) in assay [2] (read-out: hTHP-1 IC50 in 10% FBS, hTHP-1 assay containing 10% fetal bovine serum, Table B5, listed as 834) is 40 to 200 nM.

Turning to `NS(=O)(=NC(=O)Nc1c2c(nc3c1CCC3)CCC2)c1nn(C2CC2)cc1F` (single isomer, unassigned) [Example 864, (S) or (R)-1-cyclopropyl-4-fluoro-N′-((1,2,3,5,6,7-hexahydrodicyclopenta[b,e]pyridin-8-yl)carbamoyl)-1H-pyrazole-3-sulfonimidamide], the IC50 in assay [2] (setting [5]) lay within 200 to 1000 nM.

Consider `C[C@@H](O)Cn1cc(F)c(S(N)(=O)=NC(=O)Nc2c3c(nc4c2CCC42CC2)CCC3)n1` (stereo partly drawn) [Compound 1119, 4-Fluoro-1-((R)-2-hydroxypropyl)-N′-((1′,5′,6′,7′-tetrahydro-2′H-spiro[cyclopropane-1,3′-dicyclopenta[b,e]pyridin]-8′-yl)carbamoyl)-1H-pyrazole-3-sulfonimidamide], for which the concentration for half-maximal inhibition (IC50) in assay [2] (setting [3]) fell in the range of 8 to 40 nM.

Regarding `Cc1nc2c(c(NC(=O)N=S(N)(=O)c3scc(C(C)(C)O)c3F)c1-c1ccccc1)CCC2` (centres unmarked) [Compound 1110, 3-Fluoro-4-(2-hydroxy-propan-2-yl)-N′-((2-methyl-3-phenyl-6,7-dihydro-5H-cyclopenta [b]pyridin-4-yl)carbamoyl)thiophene-2-sulfonimidamide], the half-maximal inhibitory concentration (IC50) in assay [2] (setting [3]) was 40 to 200 nM.

In the case of `CC(C)(O)c1csc(S(N)(=O)=NC(=O)Nc2c3c(nc4c2CCC4)CCC3)c1F` (centres unmarked) [Compound 1107, 3-Fluoro-N′-((1,2,3,5,6,7-hexahydrodicyclopenta [b,e]pyridin-8-yl)carbamoyl)-4-(2-hydroxypropan-2-yl)thiophene-2-sulfonimidamide], the IC50 in assay [2] (setting [3]) fell in the range of 40 to 200 nM.

In the case of `CC(C)n1cc(F)c(S(N)(=O)=NC(=O)Nc2c3c(nc(C(F)(F)F)c2C2CC2)CCC3)n1` (single isomer, unassigned) [Compound 1104b, (S) or (R)-N′-((3-cyclopropyl-2-(trifluoromethyl)-6,7-dihydro-5H-cyclopenta[b]pyridin-4-yl)carbamoyl)-4-fluoro-1-isopropyl-1H-pyrazole-3-sulfonimidamide], in assay [2] (read-out: hTHP-1 IC50 in 10% FBS, hTHP-1 assay containing 10% fetal bovine serum, Table B5, listed as 827), the half-maximal inhibitory concentration (IC50) lay within 1000 to 5000 nM.

As to `CC(C)n1cc(F)c(S(N)(=O)=NC(=O)Nc2c3c(nc(C(F)(F)F)c2C2CC2)CCC3)n1` (single isomer, unassigned) [Compound 1104a, (R) or (S)-N′-((3-cyclopropyl-2-(trifluoromethyl)-6,7-dihydro-5H-cyclopenta[b]pyridin-4-yl)carbamoyl)-4-fluoro-1-isopropyl-1H-pyrazole-3-sulfonimidamide], the concentration for half-maximal inhibition (IC50) in assay [2] (read-out: hTHP-1 IC50 in 10% FBS, hTHP-1 assay containing 10% fetal bovine serum, Table B5, listed as 826) lay within 40 to 200 nM.

For the compound `NS(=O)(=NC(=O)Nc1c2c(nc3c1CCC31CC1)CCC2)c1nn(C2CC2)cc1F` (single isomer, unassigned) [Example 866, (S) or (R)-1-cyclopropyl-4-fluoro-N′-((1′,5′,6′,7′-tetrahydro-2′H-spiro[cyclopropan-1,3′-dicyclopenta[b,e]pyridin]-8′-yl)carbamoyl)-1H-pyrazole-3-sulfonimidamide], in assay [2] (setting [5]), the half-inhibitory concentration (IC50) is 40 to 200 nM.

For the origin of these results see patent US20230031406A1, “COMPOUNDS AND COMPOSITIONS FOR TREATING CONDITIONS ASSOCIATED WITH NLRP ACTIVITY” (Novartis AG, priority 2018, published 2023).
